This is an account of results in ChEMBL document CHEMBL1150705, “Plant anticancer agents XLIV. Cytotoxic constituents from Stizophyllum riparium” (1987).

Converted amounts (≈) assume the structure as drawn.

The subject of this test is P388. Kind of test: Cytotoxicity against mouse P388 cells. It is filed as functional. To be noted: read-out: ED50 (the source's name).

Consider `CC(=O)C1=CC[C@H]2C3=CCC4=C[C@@H](O)[C@H](O)C[C@]4(C)[C@H]3C[C@@H](O)[C@]12C` [STIZOPHYLLIN], for which the EC50 was 0.07 µg/mL (≈ 0.203 µM).
